Data from publication PMC6222781, “Structural Optimization of Foldamer-Dendrimer Conjugates as Multivalent Agents against the Toxic Effects of Amyloid Beta Oligomers” (Molecules : A Journal of Synthetic Chemistry and Natural …, 2018).
Like-named read-outs stand apart in the source and are kept apart here.

Target: T1, Aβ oligomers (Homo sapiens, UniProt P05067)
T1 construct: Ser^26 depsipeptide iso-Aβ (1–42) was used; made in house; host or cells: chemical peptide synthesis (no expression host)
Test: Isothermal titration calorimetry (ITC) binding to Aβ oligomers
Settings: PBS pH 7.4, 285 K; for Kd: Aβ 100 µM in cell, ligand 250 µM in syringe, two independent site model; for ΔG, first binding stage / ΔH, first binding stage / ΔG, second binding stage / ΔH, second binding stage: ITC
Description: The binding affinities of 2b–2i to Aβ oligomers were tested in ITC experiments.
In this work, Ser^26 depsipeptide iso-Aβ (1–42) was used, which was synthesized and purified as described previously. The lyophilized iso-Aβ (1–42) was dissolved in MilliQ water to a concentration of 1 mg mL^−1, sonicated for 3 min and the pH was set to 7.0 to initiate an O to N acyl migration, whereby the native sequence can be readily formed. The sample was incubated at room temperature for 10 min. Then the pH was set to 11 and the sample was kept at room temperature for additional 2 h. After the incubation, the Aβ stock solution was aliquoted and stored at −20 °C until use. To obtain Aβ oligomers, the 1 mg mL^−1 aliquot was diluted to a final concentration of 50 μM with 26.67 mM PBS and the pH was set to 7.4 with 1 M HCl. The sample was incubated at 37 °C for 3 h.
Isothermal calorimetric titrations were performed with a Microcal VP-ITC microcalorimeter in pH 7.4 PBS buffer solution. In individual titrations, 10 µL portions of the ligand containing solution were repeatedly injected from the computer-controlled 300-µL microsyringe at intervals of 300 s into the Aβ oligomer solution prepared in the same buffer as the ligand. All measurements were carried out at 285 K. The Aβ concentration in the cell was 100 µM and the total ligand concentration was 250 µM in the syringe and the titration was stopped when the precipitation of the Aβ aggregates became excessive. Control experiments were performed by injecting the ligand into a cell containing buffer with no target, and the heats of dilution were subtracted from those measured in the presence of Aβ. The experimental data were fitted to the two independent site binding models by using a nonlinear least-squares procedure, with ΔHb, ΔHb’, Kd, Kd’ ([…]), n and n’ (number of binding sites for monomer), as adjustable parameters.

[1] = KD, first binding stage, Table 2
[2] = KD, second binding stage, Table 2

T1 sequence (P05067 672-713 limits assumed): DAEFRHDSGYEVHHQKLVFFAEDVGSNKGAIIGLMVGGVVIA

SMILES | Kd [1] | Kd [2] | ΔG, first binding stage (Table 2, first binding stage) | ΔH, first binding stage (Table 2, first binding stage) | ΔG, second binding stage (Table 2, second binding stage) | ΔH, second binding stage (Table 2, second binding stage) | further results
N=C(N)NCCC[C@@H](CC(=O)N[C@H]1CCCC[C@@H]1C(=O)N[C@H]1CCCC[C@@H]1C(=O)N[C@@H](CC(=O)O)CC(=O)N[C@H]1CCCC[C@@H]1C(=O)NCC(=O)NCC(=O)N[C@@H](CSC1CC(=O)N(CCC(=O)NCCNC(=O)CCN(CCC(=O)NCCNC(=O)CCN2C(=O)CC(SC[C@H](NC(=O)CNC(=O)CNC(=O)[C@H]3CCCC[C@@H]3NC(=O)C[C@H](CC(=O)O)NC(=O)[C@H]3CCCC[C@@H]3NC(=O)[C@H]3CCCC[C@@H]3NC(=O)C[C@H](CCCNC(=N)N)NC(=O)[C@H]3CCCC[C@@H]3N)C(N)=O)C2=O)CCN(CCC(=O)NCCNC(=O)CCN2C(=O)CC(SC[C@H](NC(=O)CNC(=O)CNC(=O)[C@H]3CCCC[C@@H]3NC(=O)C[C@H](CC(=O)O)NC(=O)[C@H]3CCCC[C@@H]3NC(=O)[C@H]3CCCC[C@@H]3NC(=O)C[C@H](CCCNC(=N)N)NC(=O)[C@H]3CCCC[C@@H]3N)C(N)=O)C2=O)CCC(=O)NCCNC(=O)CCN2C(=O)CC(SC[C@H](NC(=O)CNC(=O)CNC(=O)[C@H]3CCCC[C@@H]3NC(=O)C[C@H](CC(=O)O)NC(=O)[C@H]3CCCC[C@@H]3NC(=O)[C@H]3CCCC[C@@H]3NC(=O)C[C@H](CCCNC(=N)N)NC(=O)[C@H]3CCCC[C@@H]3N)C(N)=O)C2=O)C1=O)C(N)=O)NC(=O)[C@H]1CCCC[C@@H]1N (stereo partly shown) [Compound 5] | 6.9 ± 1.4 nM | 281 ± 38.7 nM | – | – | – | – | –
N=C(N)NCCC[C@@H](CC(=O)N[C@H]1CCCC[C@@H]1C(=O)N[C@H]1CCCC[C@@H]1C(=O)N[C@@H](CC(=O)O)CC(=O)N[C@H]1CCCC[C@@H]1C(=O)NCC(=O)NCC(=O)N[C@@H](CSC1CC(=O)N(CCC(=O)NCCCC[C@H](NC(=O)CCN2C(=O)CC(SC[C@H](NC(=O)CNC(=O)CNC(=O)[C@H]3CCCC[C@@H]3NC(=O)C[C@H](CC(=O)O)NC(=O)[C@H]3CCCC[C@@H]3NC(=O)[C@H]3CCCC[C@@H]3NC(=O)C[C@H](CCCNC(=N)N)NC(=O)[C@H]3CCCC[C@@H]3N)C(N)=O)C2=O)C(=O)NCCCC[C@H](NC(=O)[C@H](CCCCNC(=O)CCN2C(=O)CC(SC[C@H](NC(=O)CNC(=O)CNC(=O)[C@H]3CCCC[C@@H]3NC(=O)C[C@H](CC(=O)O)NC(=O)[C@H]3CCCC[C@@H]3NC(=O)[C@H]3CCCC[C@@H]3NC(=O)C[C@H](CCCNC(=N)N)NC(=O)[C@H]3CCCC[C@@H]3N)C(N)=O)C2=O)NC(=O)CCN2C(=O)CC(SC[C@H](NC(=O)CNC(=O)CNC(=O)[C@H]3CCCC[C@@H]3NC(=O)C[C@H](CC(=O)O)NC(=O)[C@H]3CCCC[C@@H]3NC(=O)[C@H]3CCCC[C@@H]3NC(=O)C[C@H](CCCNC(=N)N)NC(=O)[C@H]3CCCC[C@@H]3N)C(N)=O)C2=O)C(=O)NCC(N)=O)C1=O)C(N)=O)NC(=O)[C@H]1CCCC[C@@H]1N (stereo partly shown) [Compound 7] | 16.2 ± 8.9 nM | 128 ± 56.7 nM | – | – | – | – | –
CC1(C)[C@H]2C[C@H](NC(=O)C[C@H](CCCNC(=N)N)NC(=O)[C@H]3CCCC[C@@H]3N)[C@@H](C(=O)N[C@H]3CCCC[C@@H]3C(=O)N[C@@H](CC(=O)O)CC(=O)N[C@H]3CCCC[C@@H]3C(=O)NCC(=O)NCC(=O)N[C@@H](CSC3CC(=O)N(CCC(=O)NCCCC[C@H](NC(=O)CCN4C(=O)CC(SC[C@H](NC(=O)CNC(=O)CNC(=O)[C@H]5CCCC[C@@H]5NC(=O)C[C@H](CC(=O)O)NC(=O)[C@H]5CCCC[C@@H]5NC(=O)[C@@H]5[C@@H](NC(=O)C[C@H](CCCNC(=N)N)NC(=O)[C@H]6CCCC[C@@H]6N)C[C@H]6C[C@@H]5C6(C)C)C(N)=O)C4=O)C(=O)NCCCC[C@H](NC(=O)[C@H](CCCCNC(=O)CCN4C(=O)CC(SC[C@H](NC(=O)CNC(=O)CNC(=O)[C@H]5CCCC[C@@H]5NC(=O)C[C@H](CC(=O)O)NC(=O)[C@H]5CCCC[C@@H]5NC(=O)[C@@H]5[C@@H](NC(=O)C[C@H](CCCNC(=N)N)NC(=O)[C@H]6CCCC[C@@H]6N)C[C@H]6C[C@@H]5C6(C)C)C(N)=O)C4=O)NC(=O)CCN4C(=O)CC(SC[C@H](NC(=O)CNC(=O)CNC(=O)[C@H]5CCCC[C@@H]5NC(=O)C[C@H](CC(=O)O)NC(=O)[C@H]5CCCC[C@@H]5NC(=O)[C@@H]5[C@@H](NC(=O)C[C@H](CCCNC(=N)N)NC(=O)[C@H]6CCCC[C@@H]6N)C[C@H]6C[C@@H]5C6(C)C)C(N)=O)C4=O)C(=O)N[C@@H](CCCCNC(=O)CCCC[C@@H]4SC[C@@H]5NC(=O)N[C@@H]54)C(N)=O)C3=O)C(N)=O)[C@@H]1C2 (stereo partly shown) [Compound 2g] | – | – | – | – | – | – | Kd (KD ITC, first binding stage, Table 1): 34.1 ± 10 nM; Kd (KD ITC, second binding stage, Table 1): 652 ± 158 nM
N=C(N)NCCC[C@@H](CC(=O)N[C@H]1CCCC[C@@H]1C(=O)N[C@H]1CCCC[C@@H]1C(=O)N[C@@H](CC(=O)O)CC(=O)N[C@H]1CCCC[C@@H]1C(=O)NCC(=O)NCC(=O)N[C@@H](CSSC[C@H](NC(=O)CNC(=O)CNC(=O)[C@H]1CCCC[C@@H]1NC(=O)C[C@H](CC(=O)O)NC(=O)[C@H]1CCCC[C@@H]1NC(=O)[C@H]1CCCC[C@@H]1NC(=O)C[C@H](CCCNC(=N)N)NC(=O)[C@H]1CCCC[C@@H]1NC(=O)CCC(=O)NCCOCCOCCNC(=O)[C@H]1CCCC[C@@H]1NC(=O)C[C@H](CC(=O)O)NC(=O)[C@H]1CCCC[C@@H]1NC(=O)[C@H]1CCCC[C@@H]1NC(=O)C[C@H](CCCNC(=N)N)NC(=O)[C@H]1CCCC[C@@H]1N)C(N)=O)C(N)=O)NC(=O)[C@H]1CCCC[C@@H]1NC(=O)CCC(=O)NCCOCCOCCNC(=O)[C@H]1CCCC[C@@H]1NC(=O)C[C@H](CC(=O)O)NC(=O)[C@H]1CCCC[C@@H]1NC(=O)[C@H]1CCCC[C@@H]1NC(=O)C[C@H](CCCNC(=N)N)NC(=O)[C@H]1CCCC[C@@H]1N [Compound 9] | – | – | -9.83 kcal/M | 6.01 kcal/M | -8.48 kcal/M | 1.18 kcal/M | –
N=C(N)NCCC[C@@H](CC(=O)N[C@H]1CCCC[C@@H]1C(=O)N[C@H]1CCCC[C@@H]1C(=O)N[C@@H](CC(=O)O)CC(=O)N[C@H]1CCCC[C@@H]1C(=O)NCC(=O)NCC(=O)N[C@@H](CSC1CC(=O)N(CCC(=O)NCCCCC(=O)NCCN(CCNC(=O)CCCCNC(=O)CCN2C(=O)CC(SC[C@H](NC(=O)CNC(=O)CNC(=O)[C@H]3CCCC[C@@H]3NC(=O)C[C@H](CC(=O)O)NC(=O)[C@H]3CCCC[C@@H]3NC(=O)[C@H]3CCCC[C@@H]3NC(=O)C[C@H](CCCNC(=N)N)NC(=O)[C@H]3CCCC[C@@H]3N)C(N)=O)C2=O)CCNC(=O)CCCCNC(=O)CCN2C(=O)CC(SC[C@H](NC(=O)CNC(=O)CNC(=O)[C@H]3CCCC[C@@H]3NC(=O)C[C@H](CC(=O)O)NC(=O)[C@H]3CCCC[C@@H]3NC(=O)[C@H]3CCCC[C@@H]3NC(=O)C[C@H](CCCNC(=N)N)NC(=O)[C@H]3CCCC[C@@H]3N)C(N)=O)C2=O)C1=O)C(N)=O)NC(=O)[C@H]1CCCC[C@@H]1N (stereo partly shown) [Compound 4] | – | – | – | – | – | – | Kd (Table 2, first binding stage, read-out: KD, first binding stage): 18.5 ± 13.9 nM; Kd (Table 2, second binding stage, read-out: KD, second binding stage): 155 ± 131 nM
CC(=O)N[C@@H](CCCCNC(=O)CCN1C(=O)CC(SC[C@H](NC(=O)CNC(=O)CNC(=O)[C@H]2CCCC[C@@H]2NC(=O)C[C@H](CC(=O)O)NC(=O)[C@H]2CCCC[C@@H]2NC(=O)[C@H]2CCCC[C@@H]2NC(=O)C[C@H](CCCNC(=N)N)NC(=O)[C@H]2CCCC[C@@H]2N)C(N)=O)C1=O)C(=O)NCC(=O)N[C@@H](CCCCNC(=O)CCN1C(=O)CC(SC[C@H](NC(=O)CNC(=O)CNC(=O)[C@H]2CCCC[C@@H]2NC(=O)C[C@H](CC(=O)O)NC(=O)[C@H]2CCCC[C@@H]2NC(=O)[C@H]2CCCC[C@@H]2NC(=O)C[C@H](CCCNC(=N)N)NC(=O)[C@H]2CCCC[C@@H]2N)C(N)=O)C1=O)C(=O)NCC(=O)N[C@@H](CCCCNC(=O)CCN1C(=O)CC(SC[C@H](NC(=O)CNC(=O)CNC(=O)[C@H]2CCCC[C@@H]2NC(=O)C[C@H](CC(=O)O)NC(=O)[C@H]2CCCC[C@@H]2NC(=O)[C@H]2CCCC[C@@H]2NC(=O)C[C@H](CCCNC(=N)N)NC(=O)[C@H]2CCCC[C@@H]2N)C(N)=O)C1=O)C(=O)NCC(=O)N[C@@H](CCCCNC(=O)CCN1C(=O)CC(SC[C@H](NC(=O)CNC(=O)CNC(=O)[C@H]2CCCC[C@@H]2NC(=O)C[C@H](CC(=O)O)NC(=O)[C@H]2CCCC[C@@H]2NC(=O)[C@H]2CCCC[C@@H]2NC(=O)C[C@H](CCCNC(=N)N)NC(=O)[C@H]2CCCC[C@@H]2N)C(N)=O)C1=O)C(N)=O (stereo partly shown) [Compound 8] | – | – | -11.07 kcal/M | 2.31 kcal/M | -8.48 kcal/M | 0.51 kcal/M | –
